Test results published in US11051515B2, “3-acyl-benzamides and their use as herbicides” (Bayer Aktiengesellschaft, priority 2017, dated 2021).

Legend:
[1] = tested on: AVEFA; assay: Post-emergence action against AVEFA; type: in vivo, Avena fatua; details: post-emergence, dosage 80 g/ha, visual assessment about 3 weeks after treatment vs untreated controls
Outline: (§1)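 Post-emergence foliar spray on greenhouse plants at the one-leaf stage, using wettable-powder or emulsion-concentrate formulations in water (600 to […], plus 0.2% wetting agent). Damage scored by eye roughly 3 weeks later against untreated plants: 0% = like control, 100% = dead.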

[2] = tested on: POLCO; assay: Post-emergence action against POLCO; type: in vivo, Polygonum convolvulus; details: post-emergence, dosage 80 g/ha
Outline: as §1

[3] = tested on: ECHCG; assay: Pre-emergence action against ECHCG; type: in vivo, Echinochloa crus-galli; details: pre-emergence, dosage 320 g/ha, scored visually after 3 weeks vs untreated controls
Outline: (§2)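 Seeds sown in sandy loam in wood-fiber pots and covered with soil. Greenhouse growth; visual damage scored after 3 weeks versus untreated controls (100% = dead, 0% = like control).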

[4] = tested on: HORMU; assay: Pre-emergence action against HORMU; type: in vivo, Hordeum murinum; details: Dosage 320 g/ha
Outline: as §2

[5] = tested on: MATIN; assay: Post-emergence action against MATIN; type: in vivo, Matricaria inodora; details: post-emergence, dosage 80 g/ha, visual assessment about 3 weeks after treatment vs untreated controls
Outline: as §1

[6] = tested on: SETVI; assay: Pre-emergence action against SETVI; type: in vivo, Setaria viridis; details: pre-emergence, dosage 320 g/ha, scored visually after 3 weeks vs untreated controls
Outline: as §2

[7] = tested on: ALOMY; assay: Pre-emergence action against ALOMY; type: in vivo, Alopecurus myosuroides; details: dosage 320 g/ha, pre-emergence, scored visually after 3 weeks vs untreated controls, 100% = plants have died, 0% = like control plants
Outline: as §2

[8] = tested on: VIOTR; assay: Post-emergence action against VIOTR; type: in vivo, Viola tricolor; details: post-emergence, dosage 80 g/ha
Outline: as §1

[9] = tested on: VERPE; assay: Post-emergence action against VERPE; type: in vivo, Veronica persica; details: dosage 80 g/ha
Outline: as §1

[10] = tested on: ABUTH; assay: Post-emergence action against ABUTH; type: in vivo, Abutilon theophrasti; details: post-emergence, dosage 80 g/ha, visual assessment about 3 weeks after treatment vs untreated controls
Outline: as §1

[11] = tested on: SETVI; assay: Post-emergence action against SETVI; type: in vivo, Setaria viridis; details: post-emergence, dosage 80 g/ha, visual assessment about 3 weeks after treatment vs untreated controls
Outline: as §1

[12] = tested on: VIOTR; assay: Pre-emergence action against VIOTR; type: in vivo, Viola tricolor; details: Dosage 320 g/ha, pre-emergence
Outline: as §2

[13] = tested on: POLCO; assay: Pre-emergence action against POLCO; type: in vivo, Polygonum convolvulus; details: Fallopia convolvulus, 504 h; Dosage 320 g/ha, pre-emergence
Outline: as §2

[14] = tested on: PHBPU; assay: Post-emergence action against PHBPU; type: in vivo, Pharbitis purpurea; details: post-emergence, dosage 80 g/ha
Outline: as §1

[15] = tested on: AMARE; assay: Pre-emergence action against AMARE; type: in vivo, Amaranthus retroflexus; details: pre-emergence, dosage 320 g/ha, scored visually after 3 weeks vs untreated controls
Outline: as §2

[16] = tested on: LOLRI; assay: Pre-emergence action against LOLRI; type: in vivo, Lolium rigidum; details: dosage 320 g/ha, scored visually after 3 weeks vs untreated controls
Outline: as §2

[17] = tested on: AMARE; assay: Post-emergence action against AMARE; type: in vivo, Amaranthus retroflexus; details: post-emergence, dosage 80 g/ha, visual assessment about 3 weeks after treatment vs untreated controls
Outline: as §1

[18] = tested on: MATIN; assay: Pre-emergence action against MATIN; type: in vivo, Matricaria inodora; details: Dosage 320 g/ha, pre-emergence
Outline: as §2

[19] = tested on: DIGSA; assay: Pre-emergence action against DIGSA; type: in vivo, Digitaria sanguinalis; details: dosage 320 g/ha, scored visually after 3 weeks vs untreated controls
Outline: as §2

[20] = tested on: DIGSA; assay: Post-emergence action against DIGSA; type: in vivo, Digitaria sanguinalis; details: dosage 80 g/ha, visual assessment about 3 weeks after treatment vs untreated controls
Outline: as §1

[21] = tested on: VERPE; assay: Pre-emergence action against VERPE; type: in vivo, Veronica persica; details: Dosage 320 g/ha, pre-emergence
Outline: as §2

[22] = tested on: STEME; assay: Pre-emergence action against STEME; type: in vivo, Stellaria media; details: Dosage 320 g/ha, pre-emergence
Outline: as §2

[23] = tested on: ECHCG; assay: Post-emergence action against ECHCG; type: in vivo, Echinochloa crus-galli; details: post-emergence, dosage 80 g/ha, visual assessment about 3 weeks after treatment vs untreated controls
Outline: as §1

[24] = tested on: PHBPU; assay: Pre-emergence action against PHBPU; type: in vivo, Pharbitis purpurea; details: Dosage 320 g/ha, pre-emergence
Outline: as §2

[25] = tested on: ABUTH; assay: Pre-emergence action against ABUTH; type: in vivo, Abutilon theophrasti; details: pre-emergence, dosage 320 g/ha, scored visually after 3 weeks vs untreated controls
Outline: as §2

[26] = tested on: STEME; assay: Post-emergence action against STEME; type: in vivo, Stellaria media; details: post-emergence, dosage 80 g/ha
Outline: as §1

[27] = tested on: AVEFA; assay: Pre-emergence action against AVEFA; type: in vivo, Avena fatua; details: dosage 320 g/ha, scored visually after 3 weeks vs untreated controls
Outline: as §2

[28] = tested on: ALOMY; assay: Post-emergence action against ALOMY; type: in vivo, Alopecurus myosuroides; details: Dosage 80 g/ha, post-emergence
Outline: as §1

Cn1nnnc1NC(=O)c1ccc(C(F)(F)F)c(C(=O)C(F)F)c1Cl [1-163]
pest or weed control at 80 g/ha ([1]; Avena fatua, 504 h, read-out: Post-emergence action against AVEFA (herbicidal action in percent)): 90% | pest or weed control at 80 g/ha ([2]; Fallopia convolvulus, 504 h): 100% | pest or weed control at 320 g/ha ([3]; Echinochloa crus-galli, 504 h, read-out: Pre-emergence action against ECHCG (herbicidal activity)): 100% | pest or weed control at 320 g/ha ([4]; Hordeum murinum, 504 h): 90% | pest or weed control at 80 g/ha ([5]; Tripleurospermum inodorum, 504 h, read-out: Post-emergence action against MATIN (herbicidal action in percent)): 90% | pest or weed control at 320 g/ha ([6]; Setaria viridis, 504 h, read-out: SETVI (Table B8, pre-emergence herbicidal activity)): 100% | pest or weed control at 320 g/ha ([7]; Alopecurus myosuroides, 504 h, read-out: Pre-emergence action against ALOMY (herbicidal activity in percent)): 90% | pest or weed control at 80 g/ha ([8]; Viola tricolor, 504 h): 90% | pest or weed control at 80 g/ha ([9]; Veronica persica, 504 h): 90% | pest or weed control at 80 g/ha ([10]; Abutilon theophrasti, 504 h, read-out: Post-emergence action against ABUTH (herbicidal action in percent)): 90% | pest or weed control at 80 g/ha ([11]; Setaria viridis, 504 h, read-out: Post-emergence action against SETVI (herbicidal action in percent)): 80% | pest or weed control at 320 g/ha ([12]; Viola tricolor, 504 h): 100% | pest or weed control at 320 g/ha [13]: 90% | pest or weed control at 80 g/ha ([14]; Ipomoea purpurea, 504 h): 90% | pest or weed control at 320 g/ha ([15]; Amaranthus retroflexus, 504 h, read-out: Pre-emergence action against AMARE (herbicidal activity)): 100% | pest or weed control at 320 g/ha ([16]; Lolium rigidum, 504 h, read-out: Pre-emergence action against LOLRI (herbicidal activity)): 90% | pest or weed control at 80 g/ha ([17]; Amaranthus retroflexus, 504 h, read-out: Post-emergence action against AMARE (herbicidal action in percent)): 90% | pest or weed control at 320 g/ha ([18]; Tripleurospermum inodorum, 504 h): 100% | Pre-emergence action against DIGSA (herbicidal activity) [19]: 100% | Post-emergence action against DIGSA (herbicidal action in percent) [20]: 100% | pest or weed control at 320 g/ha ([21]; Veronica persica, 504 h): 100% | pest or weed control at 320 g/ha ([22]; Stellaria media, 504 h): 100% | pest or weed control at 80 g/ha ([23]; Echinochloa crus-galli, 504 h, read-out: Post-emergence action against ECHCG (herbicidal action in percent)): 90% | pest or weed control at 320 g/ha ([24]; Ipomoea purpurea, 504 h): 80% | pest or weed control at 320 g/ha ([25]; Abutilon theophrasti, 504 h, read-out: Pre-emergence action against ABUTH (herbicidal activity)): 100% | pest or weed control at 80 g/ha ([26]; Stellaria media, 504 h): 100% | pest or weed control at 320 g/ha ([27]; Avena fatua, 504 h, read-out: Pre-emergence action against AVEFA (herbicidal activity)): 100%

CCCC(=O)c1c(C(F)(F)F)ccc(C(=O)Nc2nnnn2CC)c1C [2-16]
Post-emergence action against AVEFA (herbicidal action in percent) [1]: 90% | Post-emergence action against POLCO [2]: 80 | Pre-emergence action against ECHCG (herbicidal activity) [3]: 100% | Pre-emergence action against HORMU [4]: 80% | Post-emergence action against MATIN (herbicidal action in percent) [5]: 100% | SETVI (Table B8, pre-emergence herbicidal activity) [6]: 90% | Pre-emergence action against ALOMY (herbicidal activity in percent) [7]: 90% | Post-emergence action against VIOTR [8]: 100 | Post-emergence action against VERPE [9]: 80 | Post-emergence action against ABUTH (herbicidal action in percent) [10]: 100% | Post-emergence action against SETVI (herbicidal action in percent) [11]: 90% | Pre-emergence action against VIOTR [12]: 90% | Post-emergence action against PHBPU [14]: 100 | Pre-emergence action against AMARE (herbicidal activity) [15]: 100% | Pre-emergence action against LOLRI (herbicidal activity) [16]: 90% | Post-emergence action against AMARE (herbicidal action in percent) [17]: 100% | Pre-emergence action against MATIN [18]: 90% | Pre-emergence action against DIGSA (herbicidal activity) [19]: 100% | Post-emergence action against DIGSA (herbicidal action in percent) [20]: 90% | Pre-emergence action against VERPE [21]: 100% | Pre-emergence action against STEME [22]: 90% | Post-emergence action against ECHCG (herbicidal action in percent) [23]: 90% | Pre-emergence action against PHBPU [24]: 90% | Pre-emergence action against ABUTH (herbicidal activity) [25]: 100% | Post-emergence action against ALOMY [28]: 80% | Post-emergence action against STEME [26]: 100 | Pre-emergence action against AVEFA (herbicidal activity) [27]: 90%

CSc1c(C(=O)Nc2nnnn2C)ccc(C(F)(F)F)c1C(=O)C1CCC1 [1-284]
Post-emergence action against AVEFA (herbicidal action in percent) [1]: 80% | Pre-emergence action against ECHCG (herbicidal activity) [3]: 100% | Pre-emergence action against HORMU [4]: 80% | Post-emergence action against MATIN (herbicidal action in percent) [5]: 100% | SETVI (Table B8, pre-emergence herbicidal activity) [6]: 100% | Pre-emergence action against ALOMY (herbicidal activity in percent) [7]: 90% | Post-emergence action against VIOTR [8]: 100 | Post-emergence action against VERPE [9]: 90 | Post-emergence action against ABUTH (herbicidal action in percent) [10]: 100% | Pre-emergence action against VIOTR [12]: 90% | Post-emergence action against PHBPU [14]: 90 | Pre-emergence action against AMARE (herbicidal activity) [15]: 100% | Pre-emergence action against LOLRI (herbicidal activity) [16]: 90% | Post-emergence action against AMARE (herbicidal action in percent) [17]: 100% | Pre-emergence action against MATIN [18]: 100% | Pre-emergence action against DIGSA (herbicidal activity) [19]: 100% | Post-emergence action against DIGSA (herbicidal action in percent) [20]: 90% | Pre-emergence action against VERPE [21]: 100% | Pre-emergence action against STEME [22]: 100% | Post-emergence action against ECHCG (herbicidal action in percent) [23]: 100% | Pre-emergence action against PHBPU [24]: 80% | Pre-emergence action against ABUTH (herbicidal activity) [25]: 100% | Post-emergence action against STEME [26]: 100 | Pre-emergence action against AVEFA (herbicidal activity) [27]: 90%
